Experiments:
Assay type in all cases: in vivo
[1] = test system: redroot pigweed (Amaranthus retroflexus, AMARE); assay: Pre-emerge test, greenhouse herbicide activity screening; conditions: for Pre-emerge Herbicidal Activity AMARE: phytotoxicity rating 0-100, 14 days after application; for phytotoxicity rating AMARE: pre-emerge, 14 days after application, rating scale 0-100
How it was run: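 Compounds in acetone were track-sprayed at 187 l/ha, 15–1000 g ai/ha, onto sandy loam pots. Pre-emerge seeds were sown one day before spraying, with surface watering afterwards. Post-emerge plants were at the 2–3 leaf stage and sprayed with 0.25% v/v non-ionic surfactant. Injury was rated 0–100 at 14 days.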

[2] = test system: barnyardgrass (Echinochloa crus-galli, ECHCG); assay: as above; conditions: for Pre-emerge Herbicidal Activity ECHCG: phytotoxicity rating 0-100, 14 days after application; for phytotoxicity rating ECHCG: pre-emerge, 14 days after application, rating scale 0-100
How it was run: (§1)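 Sandy loam pots; pre-emerge: sown 1 d pre-spray, surface-watered after, then bottom-watered. Post-emerge: sown 8–21 d before, 2–3 leaf stage, + 0.25% v/v NIS, bottom-watered. Acetone, 187 l/ha track spray, 15–1000 g ai/ha. 0–100 injury score, day 14.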

[3] = test system: green foxtail (Setaria viridis, SETVI); assay: as above; conditions: for Pre-emerge Herbicidal Activity SETVI: phytotoxicity rating 0-100, 14 days after application; for phytotoxicity rating SETVI: pre-emerge, 14 days after application, rating scale 0-100
How it was run: as §1

[4] = test system: ivyleaf morningglory (Ipomoea hederacea, IPOHE); assay: as above; conditions: for Pre-emerge Herbicidal Activity IPOHE: phytotoxicity rating 0-100, 14 days after application; for phytotoxicity rating IPOHE: pre-emerge, 14 days after application, rating scale 0-100
How it was run: as §1

[5] = test system: johnsongrass (Sorghum halepense, SORHA); assay: as above; conditions: for Pre-emerge Herbicidal Activity SORHA: phytotoxicity rating 0-100, 14 days after application; for phytotoxicity rating SORHA: pre-emerge, 14 days after application, rating scale 0-100
How it was run: as §1

[6] = test system: lambsquarters (Chenopodium album, CHEAL); assay: as above; conditions: for Pre-emerge Herbicidal Activity CHEAL: phytotoxicity rating 0-100, 14 days after application; for phytotoxicity rating CHEAL: pre-emerge, 14 days after application, rating scale 0-100
How it was run: as §1

[7] = test system: large crabgrass (Digitaria sanguinalis, DIGSA); assay: as above; conditions: for Pre-emerge Herbicidal Activity DIGSA: phytotoxicity rating 0-100, 14 days after application; for phytotoxicity rating DIGSA: pre-emerge, 14 days after application, rating scale 0-100
How it was run: as §1

[8] = test system: sicklepod (Cassia obtusifolia, CASOB); assay: as above; conditions: for Pre-emerge Herbicidal Activity CASOB: phytotoxicity rating 0-100, 14 days after application; for phytotoxicity rating CASOB: pre-emerge, 14 days after application, rating scale 0-100
How it was run: as §1

[9] = test system: velvetleaf (Abutilon theophrasti, ABUTH); assay: as above; conditions: for Pre-emerge Herbicidal Activity ABUTH: phytotoxicity rating 0-100, 14 days after application; for phytotoxicity rating ABUTH: pre-emerge, 14 days after application, rating scale 0-100
How it was run: as §1

[10] = test system: field corn (Zea mays L., var. Dekalb 535, CORN); assay: Pre-emerge test, crop safety; conditions: for Pre-emerge Herbicidal Activity CORN: crop damage rating 0-100, 14 days after application; for phytotoxicity rating CORN: pre-emerge, 14 days after application, rating scale 0-100
How it was run: (§2)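 Compounds in acetone were track-sprayed at 15-1000 g ai/ha (187 l/ha) on sandy loam pots: pre-emerge one day after seeding, post-emerge at 2-3 leaf stage with 0.25% v/v non-ionic surfactant. Phytotoxicity was rated 14 days later on a 0 (no damage) to 100 (complete death) scale.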

[11] = test system: upland rice (Oryza sp., var. Tebonnet, RICE); assay: Pre-emerge test, crop safety; conditions: for Pre-emerge Herbicidal Activity RICE: crop damage rating 0-100, 14 days after application; for phytotoxicity rating RICE: pre-emerge, 14 days after application, rating scale 0-100
How it was run: as §2

[12] = test system: barnyardgrass (Echinochloa crus-galli, ECHCG); assay: Post-emerge test, greenhouse herbicide activity screening; conditions: post-emerge, 14 days after application, rating scale 0-100
How it was run: as §2

[13] = test system: green foxtail (Setaria viridis, SETVI); assay: as above; conditions: post-emerge, 14 days after application, rating scale 0-100
How it was run: as §2

[14] = test system: ivyleaf morningglory (Ipomoea hederacea, IPOHE); assay: as above; conditions: post-emerge, 14 days after application, rating scale 0-100
How it was run: as §2

[15] = test system: johnsongrass (Sorghum halepense, SORHA); assay: as above; conditions: post-emerge, 14 days after application, rating scale 0-100
How it was run: as §2

[16] = test system: lambsquarters (Chenopodium album, CHEAL); assay: as above; conditions: post-emerge, 14 days after application, rating scale 0-100
How it was run: as §2

[17] = test system: large crabgrass (Digitaria sanguinalis, DIGSA); assay: as above; conditions: post-emerge, 14 days after application, rating scale 0-100
How it was run: as §2

[18] = test system: redroot pigweed (Amaranthus retroflexus, AMARE); assay: as above; conditions: post-emerge, 14 days after application
How it was run: as §2

[19] = test system: sicklepod (Cassia obtusifolia, CASOB); assay: as above; conditions: post-emerge, 14 days after application, rating scale 0-100
How it was run: as §2

[20] = test system: velvetleaf (Abutilon theophrasti, ABUTH); assay: as above; conditions: post-emerge, 14 days after application, rating scale 0-100
How it was run: as §2

[21] = test system: field corn (Zea mays L., var. Dekalb 535, CORN); assay: Post-emerge test, crop safety; conditions: post-emerge, 14 days after application, rating scale 0-100
How it was run: as §1

[22] = test system: upland rice (Oryza sp., var. Tebonnet, RICE); assay: Post-emerge test, crop safety; conditions: post-emerge, 14 days after application, rating scale 0-100
How it was run: as §1

[23] = 63 g ai/ha, rating scale 0-100 (0 no damage, 100 complete death)
[24] = 250 g ai/ha, rating scale 0-100

COc1c(Cl)cc(F)c(-n2c(=O)cc(C(F)(F)F)n(C)c2=O)c1NC(=O)NCc1ccccc1 [Compound 3-6]
30: Pre-emerge Herbicidal Activity SORHA ([5]; 63 g ai/ha) | Pre-emerge Herbicidal Activity DIGSA ([7]; 63 g ai/ha) | Pre-emerge Herbicidal Activity RICE ([11]; 63 g ai/ha) | phytotoxicity rating RICE (crop damage) ([22]; 63 g ai/ha)
70: phytotoxicity rating CORN (crop damage) ([21]; 250 g ai/ha) | phytotoxicity rating RICE (crop damage) ([22]; 250 g ai/ha)
90: Pre-emerge Herbicidal Activity AMARE ([1]; 63 g ai/ha) | Pre-emerge Herbicidal Activity CORN ([10]; 250 g ai/ha) | phytotoxicity rating IPOHE ([14]; 63 g ai/ha) | phytotoxicity rating CHEAL ([16]; 250 g ai/ha) | phytotoxicity rating CASOB ([19]; 250 g ai/ha)
10: phytotoxicity rating DIGSA ([17]; 250 g ai/ha)
80: Pre-emerge Herbicidal Activity ECHCG ([2]; 250 g ai/ha) | Pre-emerge Herbicidal Activity SORHA ([5]; 250 g ai/ha) | Pre-emerge Herbicidal Activity RICE ([11]; 250 g ai/ha)
0: Pre-emerge Herbicidal Activity CORN ([10]; 63 g ai/ha) | phytotoxicity rating ECHCG ([12]; 63 g ai/ha) | phytotoxicity rating SETVI ([13]; 63 g ai/ha) | phytotoxicity rating SORHA ([15]; 63 g ai/ha) | phytotoxicity rating DIGSA ([17]; 63 g ai/ha)
95: Pre-emerge Herbicidal Activity IPOHE ([4]; 250 g ai/ha)
100: Pre-emerge Herbicidal Activity AMARE ([1]; 250 g ai/ha) | Pre-emerge Herbicidal Activity SETVI ([3]; 63 g ai/ha) | Pre-emerge Herbicidal Activity SETVI ([3]; 250 g ai/ha) | Pre-emerge Herbicidal Activity IPOHE ([4]; 63 g ai/ha) | Pre-emerge Herbicidal Activity CHEAL ([6]; 63 g ai/ha) | Pre-emerge Herbicidal Activity CHEAL ([6]; 250 g ai/ha) | Pre-emerge Herbicidal Activity DIGSA ([7]; 250 g ai/ha) | Pre-emerge Herbicidal Activity CASOB ([8]; 63 g ai/ha) | Pre-emerge Herbicidal Activity CASOB ([8]; 250 g ai/ha) | Pre-emerge Herbicidal Activity ABUTH ([9]; 63 g ai/ha) | Pre-emerge Herbicidal Activity ABUTH ([9]; 250 g ai/ha) | phytotoxicity rating IPOHE ([14]; 250 g ai/ha) | phytotoxicity rating AMARE [18, 23] | phytotoxicity rating AMARE [18, 24] | phytotoxicity rating ABUTH ([20]; 63 g ai/ha) | phytotoxicity rating ABUTH ([20]; 250 g ai/ha)
20: phytotoxicity rating ECHCG ([12]; 250 g ai/ha) | phytotoxicity rating SORHA ([15]; 250 g ai/ha) | phytotoxicity rating CORN (crop damage) ([21]; 63 g ai/ha)
40: Pre-emerge Herbicidal Activity ECHCG ([2]; 63 g ai/ha) | phytotoxicity rating SETVI ([13]; 250 g ai/ha) | phytotoxicity rating CASOB ([19]; 63 g ai/ha)
50: phytotoxicity rating CHEAL ([16]; 63 g ai/ha)

COc1c(Cl)cc(F)c(-n2c(=O)cc(C(F)(F)F)n(C)c2=O)c1SC(C)C [17-2]
40: Post-emerge Herbicidal Activity CHEAL (phytotoxicity rating) ([16]; 250 g ai/ha)
20: phytotoxicity rating ABUTH ([9]; 250 g ai/ha) | Post-emerge Herbicidal Activity IPOHE (phytotoxicity rating) ([14]; 250 g ai/ha)
60: phytotoxicity rating AMARE ([1]; 250 g ai/ha) | phytotoxicity rating CHEAL ([6]; 63 g ai/ha)
30: phytotoxicity rating AMARE ([1]; 63 g ai/ha) | Post-emerge Herbicidal Activity AMARE (phytotoxicity rating) [18, 24]
50: Post-emerge Herbicidal Activity ABUTH (phytotoxicity rating) ([20]; 250 g ai/ha)
0: phytotoxicity rating ECHCG ([2]; 63 g ai/ha) | phytotoxicity rating ECHCG ([2]; 250 g ai/ha) | phytotoxicity rating SETVI ([3]; 63 g ai/ha) | phytotoxicity rating SETVI ([3]; 250 g ai/ha) | phytotoxicity rating IPOHE ([4]; 63 g ai/ha) | phytotoxicity rating IPOHE ([4]; 250 g ai/ha) | phytotoxicity rating SORHA ([5]; 63 g ai/ha) | phytotoxicity rating SORHA ([5]; 250 g ai/ha) | phytotoxicity rating DIGSA ([7]; 63 g ai/ha) | phytotoxicity rating DIGSA ([7]; 250 g ai/ha) | phytotoxicity rating CASOB ([8]; 63 g ai/ha) | phytotoxicity rating CASOB ([8]; 250 g ai/ha) | phytotoxicity rating ABUTH ([9]; 63 g ai/ha) | phytotoxicity rating CORN ([10]; 63 g ai/ha) | phytotoxicity rating CORN ([10]; 250 g ai/ha) | phytotoxicity rating RICE ([11]; 63 g ai/ha) | phytotoxicity rating RICE ([11]; 250 g ai/ha) | Post-emerge Herbicidal Activity ECHCG (phytotoxicity rating) ([12]; 63 g ai/ha) | Post-emerge Herbicidal Activity ECHCG (phytotoxicity rating) ([12]; 250 g ai/ha) | Post-emerge Herbicidal Activity SETVI (phytotoxicity rating) ([13]; 63 g ai/ha) | Post-emerge Herbicidal Activity SETVI (phytotoxicity rating) ([13]; 250 g ai/ha) | Post-emerge Herbicidal Activity IPOHE (phytotoxicity rating) ([14]; 63 g ai/ha) | Post-emerge Herbicidal Activity SORHA (phytotoxicity rating) ([15]; 63 g ai/ha) | Post-emerge Herbicidal Activity SORHA (phytotoxicity rating) ([15]; 250 g ai/ha) | Post-emerge Herbicidal Activity CHEAL (phytotoxicity rating) ([16]; 63 g ai/ha) | Post-emerge Herbicidal Activity DIGSA (phytotoxicity rating) ([17]; 63 g ai/ha) | Post-emerge Herbicidal Activity DIGSA (phytotoxicity rating) ([17]; 250 g ai/ha) | Post-emerge Herbicidal Activity AMARE (phytotoxicity rating) [18, 23] | Post-emerge Herbicidal Activity CASOB (phytotoxicity rating) ([19]; 63 g ai/ha) | Post-emerge Herbicidal Activity ABUTH (phytotoxicity rating) ([20]; 63 g ai/ha) | Post-emerge Herbicidal Activity CORN (crop damage rating) ([21]; 63 g ai/ha) | Post-emerge Herbicidal Activity CORN (crop damage rating) ([21]; 250 g ai/ha) | Post-emerge Herbicidal Activity RICE (crop damage rating) ([22]; 63 g ai/ha) | Post-emerge Herbicidal Activity RICE (crop damage rating) ([22]; 250 g ai/ha)
90: phytotoxicity rating CHEAL ([6]; 250 g ai/ha)
10: Post-emerge Herbicidal Activity CASOB (phytotoxicity rating) ([19]; 250 g ai/ha)

Reference: patent US6355799B1, “Substituted benzene compounds, process for their preparation, and herbicidal and defoliant compositions containing them” (ISK Americas Incorporated, priority 1997, dated 2002)
